# Measured values published in ChEMBL document CHEMBL1158858, “(2,4-cis and trans)-gigantecinone and 4-deoxygigantecin, bioactive nonadjacent bis-tetrahydrofuran annonaceous acetogenins, from Goniothalamus giganteus” (J Nat Prod, 1997).
# Legend:
# MIA PaCa-2 = assay: Cytotoxicity against human MIAPaCa2 cells after 7 days by MTT assay; type: functional; details: MIA PaCa-2, 168 h, read-out: ED50 (the source's name)
# PC-3 = assay: Cytotoxicity against human PC3 cells after 7 days by MTT assay; type: functional; details: PC-3, 168 h, read-out: ED50 (the source's name)
# MCF7 = assay: Cytotoxicity against human MCF7 cells after 7 days by MTT assay; type: functional; details: MCF7, 168 h, read-out: ED50 (the source's name)
# Artemia = assay: (§1) Toxicity to brine shrimp; type: organism-based; details: in vivo
# A498 = assay: Cytotoxicity against human A498 cells after 7 days by MTT assay; type: functional; details: A498, 168 h, read-out: ED50 (the source's name)
# HT-29 = assay: Cytotoxicity against human HT29 cells after 7 days by MTT assay; type: functional; details: HT-29, 168 h, read-out: ED50 (the source's name)
# Aedes aegypti = assay: Insecticidal activity against yellow fever mosquito larvae by microtiter plate assay; type: functional
# A549 = assay: Cytotoxicity against human A549 cells after 7 days by MTT assay; type: functional; details: for EC50: Homo sapiens, A549, 168 h, read-out: ED50 (the source's name)
# [1] = as §1; type: organism-based; details: artemia, in vivo
Structure (SMILES),EC50 (MIA PaCa-2) [µg/mL],EC50 (PC-3) [µg/mL],EC50 (MCF7) [µg/mL],LC50 (Artemia) [ppm],EC50 (A498) [µg/mL],EC50 (HT-29) [µg/mL],LC50 (Aedes aegypti) [µg/mL],EC50 (A549) [µg/mL],LC50 [1] [µg/mL],ED50 (A549) [×10⁻⁷ ug/ml]
CCCCCCCCCCCC[C@@H](O)[C@H]1CC[C@H]([C@H](O)CC[C@H](O)[C@@H]2CC[C@@H](CCCCCCCC3=C[C@H](C)OC3=O)O2)O1,0.393,0.15,1,0.04,0.328,0.143,0.68,0.131,–,–
CCCCCCCCCCCC[C@@H](O)[C@H]1CC[C@H]([C@H]2CC[C@@H]([C@@H]3CC[C@@H](CCCCCCCC4=C[C@H](C)OC4=O)O3)OCO2)O1,0.217,0.132,0.495,–,0.162,0.183,–,0.0382,–,–
CCCCCCCCCCCC[C@@H](O)[C@H]1CC[C@H]([C@H](O)CC[C@H](O)[C@@H]2CC[C@@H](CCCCC[C@@H]3CC(CC(C)=O)C(=O)O3)O2)O1 (some centres undefined),> 1,0.00108,> 1,3.27,0.212,> 1,0.27,0.214,–,–
CCCCCCCCCCCC[C@@H](O)[C@H]1CC[C@H]([C@H]2CC[C@@H]([C@@H]3CC[C@@H](CCCCC[C@@H]4CC(CC(C)=O)C(=O)O4)O3)OCO2)O1 (mixture of isomers),> 1,0.00306,> 1,–,0.271,> 1,–,0.252,–,–
COc1cccc2c1C(=O)c1c(O)c3c(c(O)c1C2=O)C[C@@](O)(C(=O)CO)C[C@@H]3O[C@H]1C[C@H](N)[C@H](O)[C@H](C)O1 [DOXORUBICIN],0.00142,0.0146,0.369,–,0.113,0.725,–,0.00393,–,–
CCCCCCCCCCCC[C@@H](O)[C@H]1CC[C@H]([C@H](O)CC[C@H](O)[C@@H]2CC[C@@H](CCCCC[C@@H](O)CC3=C[C@H](C)OC3=O)O2)O1 [GIGANTECIN],–,–,0.411,–,–,0.268,–,–,222,2.19
C=C(C)[C@H]1Cc2c(ccc3c2O[C@@H]2COc4cc(OC)c(OC)cc4[C@@H]2C3=O)O1 [ROTENONE],–,–,–,–,–,–,0.75,–,–,–
